Patent US20080300298A1, “Honokiol Derivates For the Treatment of Proliferative Disorders” (priority 2005, published 2008)

How the values were obtained:
PARP in KBM-5 cells = experiment: PARP cleavage assay; type: cell-based, human; details: KBM-5, TNF 1 nM with honokiol (25 mM printed)
Protocol: (§1) (D) depicts that honokiol enhances TNF-induced cell death.
PARP cleavage assay. For detection of cleavage products of PARP, whole-cell extracts were prepared by subjecting honokiol-treated cells to lysis in lysis buffer (20 mM Tris, pH 7.4; 250 mM NaCl; 2 mM EDTA, pH 8.0; 0.1% TritonX-100; 0.01 mg/ml aprotinin; 0.005 mg/ml leupeptin; 0.4 mM PMSF; and 4 mM NaVO4). Lysates were spun at 14000 rpm for 10 min to remove insoluble material, resolved by 10% SDS PAGE, and probed with PARP antibodies.
(§2) By using caspase-activated PARP cleavage, it was shown that the enhanced cytotoxicity was due to apoptosis. TNF-induced PARP cleavage was enhanced in the honokiol-treated cells (FIG. 26C).

IKK = target: T1, IKK (Homo sapiens, UniProt O14920+O15111); experiment: IKK assay (immune complex kinase assay); type: cell-based
T1 construct: 200 mg of extract was immunoprecipitated with antibodies against IKKa and IKKb; endogenous in cells; host or cells: H1299 cells, whole-cell extracts, immunoprecipitated
Protocol: Honokiol inhibits TNF-induced activation of NF-kB. H1299 cells were incubated with […] honokiol for 12 h, treated with 0.1 nM TNF for the indicated times, and then analyzed for NF-kB activation by EMSA. (B) H1299 cells (2×10^6/ml) were incubated with […] honokiol for 12 h at 37° C., treated with 0.1 nM TNF for the indicated times at 37° C., and then tested for IkBa (upper panel) in cytosolic fractions by Western blot analysis. Equal protein loading was evaluated by b-actin (lower panel). (C) Honokiol blocks the phosphorylation and ubiquitination (D) of IkBaby TNF. […] To examine the effect of honokiol on the level of expression of IKK proteins, 30 mg of whole-cell extract was analyzed on 10% SDS-PAGE, electrotransferred, and immunoblotted with the indicated antibodies as described in Materials and Methods. […] Nuclear extracts were prepared and analyzed by Western blotting using antibodies against p65. […] The cytoplasmic and nuclear extracts were analyzed by Western blotting using antibodies against the phosphorylated form of p65.
IKK assay. To determine the effect of honokiol on TNF-induced IKK activation, we analyzed IKK by a method essentially as described previously (Shishodia, S., et al. 2003 Cancer Res. 63:4375-4383). […]

[1] = system: collagen induced arthritis (CIA); experiment: collagen induced arthritis (CIA); type: in vivo, C57Bl/6 and LMP1 transgenic mice; details: 3 mg/mouse/day i.p. from day 21 post-immunization
Protocol: Female mice expressing the mCD40-LMP1 transgene (on a CD40−/− background) were bred in our transgenic mouse facility. Mice were either left naïve, immunized in the tail s.c. with […] Type II Chicken Collagen (Sigma) dissolved in 10 mM acetic acid and emulsified in IFA (Sigma) containing 5 mg/ml H37 RA heat-killed mycobacteria (Difco) (CFA), or immunized with 10 mM acetic acid emulsified in CFA. Some of the mice were injected i.p. with 3 mg/mouse/day honokiol suspended in 20% Intralipid, starting at day 21 post-immunization.

KBM-5 cells = experiment: Annexin V assay; type: cell-based, human; details: KBM-5, honokiol 12 h then 1 nM TNF 16 h
From the text: as §1
Annexin V assay. One of the early indicators of apoptosis is the rapid translocation and accumulation of the membrane phospholipid phosphatidylserine from the cell's cytoplasmic interface to the extracellular surface. This loss of membrane asymmetry can be detected using the binding properties of annexin V. Annexin V antibody conjugated with the fluorescent dye FITC was used to detect apoptosis. Briefly, 1×10^6 cells were pretreated with […] honokiol for 12 h, treated with 1 nM TNF for 16 h, and then subjected to annexin V staining. Cells were washed, stained with FITC-conjugated anti-annexin V antibody, and then analyzed with a flow cytometer (FACSCalibur; BD Biosciences).
as §2

T1 sequence (O15111 whole entry): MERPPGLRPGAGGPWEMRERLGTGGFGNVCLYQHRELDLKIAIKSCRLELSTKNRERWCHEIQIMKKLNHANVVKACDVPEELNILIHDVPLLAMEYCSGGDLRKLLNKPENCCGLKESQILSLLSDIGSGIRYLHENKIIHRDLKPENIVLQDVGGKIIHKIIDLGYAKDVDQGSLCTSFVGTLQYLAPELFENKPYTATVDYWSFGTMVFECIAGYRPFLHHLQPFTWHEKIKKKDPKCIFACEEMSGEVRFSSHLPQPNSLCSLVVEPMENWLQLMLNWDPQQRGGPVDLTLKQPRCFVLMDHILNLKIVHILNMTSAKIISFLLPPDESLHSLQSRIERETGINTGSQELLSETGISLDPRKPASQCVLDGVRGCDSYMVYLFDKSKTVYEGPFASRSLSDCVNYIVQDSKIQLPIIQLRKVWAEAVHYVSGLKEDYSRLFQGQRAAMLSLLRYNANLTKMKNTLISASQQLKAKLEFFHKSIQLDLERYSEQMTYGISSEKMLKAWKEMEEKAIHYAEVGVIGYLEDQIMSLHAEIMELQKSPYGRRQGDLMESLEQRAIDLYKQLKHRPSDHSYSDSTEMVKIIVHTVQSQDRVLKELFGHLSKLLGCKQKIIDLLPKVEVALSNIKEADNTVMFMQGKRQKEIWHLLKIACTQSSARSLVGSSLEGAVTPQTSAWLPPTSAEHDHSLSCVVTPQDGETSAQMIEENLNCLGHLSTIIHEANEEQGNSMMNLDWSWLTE
T1 sequence (O14920 whole entry): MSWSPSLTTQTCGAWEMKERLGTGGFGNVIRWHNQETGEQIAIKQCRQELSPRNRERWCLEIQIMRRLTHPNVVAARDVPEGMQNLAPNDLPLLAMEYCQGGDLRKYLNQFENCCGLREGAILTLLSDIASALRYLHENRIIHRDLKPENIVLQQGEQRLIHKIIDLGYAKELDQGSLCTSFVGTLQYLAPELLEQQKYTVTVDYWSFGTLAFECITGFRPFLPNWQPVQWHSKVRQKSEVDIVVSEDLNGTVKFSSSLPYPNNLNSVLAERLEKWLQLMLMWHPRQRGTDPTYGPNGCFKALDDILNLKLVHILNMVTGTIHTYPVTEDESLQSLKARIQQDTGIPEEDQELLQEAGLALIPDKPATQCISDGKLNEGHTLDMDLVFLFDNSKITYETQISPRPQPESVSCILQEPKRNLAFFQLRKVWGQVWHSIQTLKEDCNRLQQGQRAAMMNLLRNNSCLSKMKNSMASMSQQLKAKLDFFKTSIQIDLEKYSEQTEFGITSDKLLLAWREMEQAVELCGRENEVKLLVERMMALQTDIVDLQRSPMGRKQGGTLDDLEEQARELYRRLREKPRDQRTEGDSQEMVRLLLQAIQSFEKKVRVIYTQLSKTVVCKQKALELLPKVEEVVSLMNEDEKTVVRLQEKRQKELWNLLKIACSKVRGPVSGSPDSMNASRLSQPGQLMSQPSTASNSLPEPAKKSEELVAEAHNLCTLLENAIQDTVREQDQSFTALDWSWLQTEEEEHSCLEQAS
T1 sequence (Q9Y6K9 whole entry partner): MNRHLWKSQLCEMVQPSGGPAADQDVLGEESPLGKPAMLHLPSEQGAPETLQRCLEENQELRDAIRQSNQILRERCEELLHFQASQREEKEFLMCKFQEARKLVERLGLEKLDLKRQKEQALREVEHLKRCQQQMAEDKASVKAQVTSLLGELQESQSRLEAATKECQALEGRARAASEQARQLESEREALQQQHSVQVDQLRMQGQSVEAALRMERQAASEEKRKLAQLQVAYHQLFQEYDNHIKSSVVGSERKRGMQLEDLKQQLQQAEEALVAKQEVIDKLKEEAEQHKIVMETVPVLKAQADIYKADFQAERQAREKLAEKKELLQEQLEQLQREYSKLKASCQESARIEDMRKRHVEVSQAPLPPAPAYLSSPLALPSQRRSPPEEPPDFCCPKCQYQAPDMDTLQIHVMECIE

C=CCc1ccc(O)c(-c2ccc(O)c(CC=C)c2)c1 [HNK, Honokiol]
TNF-induced PARP cleavage (PARP in KBM-5 cells): enhanced
TNF-induced IKK activation (IKK; cells treated with honokiol 12 h, 0.1 nM TNF): completely suppressed TNF-induced activation of IKK
IKK activity in vitro (direct effect) (IKK; in vitro): did not directly interfere with the IKK activity
collagen induced arthritis (CIA) pathology [1]: stablizes collagen induced arthritis (CIA) pathology
TNF-induced early apoptosis (annexin V staining) (KBM-5 cells): quite effective in enhancing the effects of TNF
